Data from patent publication US20170295779A9, “COMPOSITION COMPRISING A PESTICIDE AND AMIDE” (BASF SE, priority 2013, published 2017).

Tests used:
barley (cultivar Lawina) = experiment: Phytotoxicity greenhouse test, spray of carboxylic acid amide on barley; assay type: in vivo; settings: 3-4 leaf stage, spray 200 l/ha comprising 1500 ml carboxylic acid amide/ha, visual score vs plants treated with water only
Method: Phytotoxicity in accordance with the present invention is determined by an assay where a spray comprising water (aqua dest.) and carboxylic acid amide (200 l/ha comprising 1500 ml carboxylic acid amide/ha) is prepared and applied on plants of barley (cultivar […]) being in 3-4 leaf stage at a water application rate of 1.5 l/ha. The experimental period lasts for 10 days. During this time, the experimental plants receive optimum watering, with nutrients being supplied via the water used for watering. The phytotoxicity is evaluated by awarding scores to the treated plants in comparison to untreated plants, i.e. treated with water only. The evaluation scale ranges from 0% to 100% phytotoxicity. The evaluation is done by visual examination. 0% phytotoxicity means that there are no differences between treated and untreated plants. Thus, no phytotoxicity in accordance with the present invention means that the treated plants to not have plant injury and there is no difference between treated and untreated plants. Low phytotoxicity in accordance with the present invention means that only 1 to 10% of the treated plants have plant injury as compared to untreated plants. For the greenhouse tests, barley (cultivar […]) was sown and cultivated in standard soil (type P, fine) for 3 weeks. The spray mixtures were applied with a minicompressor (4 times) in a laboratory fume hood on plants being in 3-4 leaf stage. A spray comprising water (aqua dest.) and dibutylpropionamide from Example 1 (200 l/ha comprising 1500 ml dibutylpropionamide/ha) was prepared and applied at a water application rate of 1.5 l/ha. The experimental period lasted for 10 days. During this time, the experimental plants received optimum watering, with nutrients being supplied via the water used for watering. The phytotoxicity was evaluated by assessing scores to the treated plants in comparison to untreated plants, i.e. treated with water only (see Table 1). The evaluation scale ranges from 0% to 100% phytotoxicity. The evaluation was done by visual examination. Thus, 0% phytotoxicity means that there were no differences between treated and untreated plants. […] A rating of 0% phytotoxicity means no crop injury. […] A rating of 100% means the complete destruction of all plants. […] Thus, less than 10% of the plants were affected when said carboxylic acid amides were applied on the plants in a dose of 1500 ml/ha. […] Thus, carboxylic acid amides wherein the N,N-alkyl groups are having more than two carbon atoms seem to have no or almost no phytotoxic effect on the plants and can therefore be used in agricultural compositions for reducing the phytotoxicity in such compositions.

[1] = Determination of the max. solubility of fungicides in carboxylic acid amides; assay type: physicochemical
Method: The respective fungicide was dissolved in the solvent of interest so that a supersaturated solution was obtained. The deposit was filtered off. The concentration of the fungicide in the supernatant was determined via quantitative 1H-NMR spectroscopy.

SMILES | Phytotoxicity [%] 10 days after treatment (barley (cultivar Lawina)) | Solubility [%] Fluxapyroxad [1] | Phytotoxicity [%] 10 days after treatment (barley (cultivar Lawina); listed as dimethylpropionamide)
CCC(=O)N(CC)CC [Diethylpropionamide, N,N-diethyl-propionamide] | 6% |  | 
CCCCN(CCCC)C(=O)CC [Dibutylpropionamide, N,N-dibutyl-propionamide] | 0% | 28% | 
CCC(=O)N(C)C [Dimethylpropionamide, N,N-dimethyl-propionamide, reference compound] | 43% |  | up to 43%
CCCCCCCC(=O)N(CCCC)CCCC [C8-dibutylamide, N,N-dibutyl-octanamide] | 5% |  | 
